Laboratory results published in ChEMBL document CHEMBL3813616, “Discovery of novel 7-azaindoles as PDK1 inhibitors” (Bioorg Med Chem Lett, 2016).

Key:
[1] = biological target: T1, Inhibitor of nuclear factor kappa-B kinase subunit beta (Homo sapiens) (UniProt O14920); experiment: Inhibition of human IKKbeta (1 to 736 residues) assessed as enzyme activity at 1 uM using 33P ATP by radioactive filter binding assay; parameters: scale not given: the % may be the effect or the level left
T1 sequence (whole entry): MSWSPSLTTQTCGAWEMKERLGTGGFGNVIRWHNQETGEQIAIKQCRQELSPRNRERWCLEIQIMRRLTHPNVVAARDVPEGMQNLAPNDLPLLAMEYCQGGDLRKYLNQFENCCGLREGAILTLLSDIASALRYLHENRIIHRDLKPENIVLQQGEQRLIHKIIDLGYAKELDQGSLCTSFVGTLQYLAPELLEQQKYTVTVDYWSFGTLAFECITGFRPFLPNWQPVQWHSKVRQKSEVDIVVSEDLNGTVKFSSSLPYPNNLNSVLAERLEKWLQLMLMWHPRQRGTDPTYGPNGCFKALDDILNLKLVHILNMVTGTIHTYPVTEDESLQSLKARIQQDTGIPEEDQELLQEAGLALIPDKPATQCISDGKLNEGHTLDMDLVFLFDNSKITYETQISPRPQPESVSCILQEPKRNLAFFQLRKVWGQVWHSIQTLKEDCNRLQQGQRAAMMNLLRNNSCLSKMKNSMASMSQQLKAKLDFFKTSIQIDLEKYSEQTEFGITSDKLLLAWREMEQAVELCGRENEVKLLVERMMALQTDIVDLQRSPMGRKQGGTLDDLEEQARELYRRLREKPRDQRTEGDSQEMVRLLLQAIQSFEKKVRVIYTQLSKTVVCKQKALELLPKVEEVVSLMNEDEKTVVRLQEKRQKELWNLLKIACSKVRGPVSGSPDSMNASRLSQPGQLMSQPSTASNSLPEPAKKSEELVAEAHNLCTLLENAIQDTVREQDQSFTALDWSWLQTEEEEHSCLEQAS

[2] = biological target: Insulin receptor-related protein (Homo sapiens) (UniProt P14616); experiment: Inhibition of human IRR (944 to 1236 residues) assessed as enzyme activity at 1 uM using 33P ATP by radioactive filter binding assay; parameters: scale not given: the % may be the effect or the level left
[3] = biological target: Mitogen-activated protein kinase 1 (Homo sapiens) (UniProt P28482); experiment: Inhibition of human MAPK2 (2 to 360 residues) assessed as enzyme activity at 1 uM using 33P ATP by radioactive filter binding assay; parameters: scale not given: the % may be the effect or the level left
[4] = biological target: MAP kinase-interacting serine/threonine-protein kinase 1 (Homo sapiens) (UniProt Q9BUB5); experiment: Inhibition of human MNK1 (2 to 424 residues) assessed as enzyme activity at 1 uM using 33P ATP by radioactive filter binding assay; parameters: scale not given: the % may be the effect or the level left
[5] = biological target: MAP kinase-interacting serine/threonine-protein kinase 2 (Homo sapiens) (UniProt Q9HBH9); experiment: Inhibition of human MNK2alpha (2 to 465 residues) assessed as enzyme activity at 1 uM using 33P ATP by radioactive filter binding assay; parameters: scale not given: the % may be the effect or the level left
[6] = biological target: Serine/threonine-protein kinase pim-2 (Homo sapiens) (UniProt Q9P1W9); experiment: Inhibition of human PIM2 (2 to 334 residues) assessed as enzyme activity at 1 uM using 33P ATP by radioactive filter binding assay; parameters: scale not given: the % may be the effect or the level left
[7] = biological target: T2, MAP kinase-activated protein kinase 5 (Homo sapiens) (UniProt Q8IW41); experiment: Inhibition of human PRAK (1 to 471 residues) assessed as enzyme activity at 1 uM using 33P ATP by radioactive filter binding assay; parameters: scale not given: the % may be the effect or the level left
T2 sequence (whole entry): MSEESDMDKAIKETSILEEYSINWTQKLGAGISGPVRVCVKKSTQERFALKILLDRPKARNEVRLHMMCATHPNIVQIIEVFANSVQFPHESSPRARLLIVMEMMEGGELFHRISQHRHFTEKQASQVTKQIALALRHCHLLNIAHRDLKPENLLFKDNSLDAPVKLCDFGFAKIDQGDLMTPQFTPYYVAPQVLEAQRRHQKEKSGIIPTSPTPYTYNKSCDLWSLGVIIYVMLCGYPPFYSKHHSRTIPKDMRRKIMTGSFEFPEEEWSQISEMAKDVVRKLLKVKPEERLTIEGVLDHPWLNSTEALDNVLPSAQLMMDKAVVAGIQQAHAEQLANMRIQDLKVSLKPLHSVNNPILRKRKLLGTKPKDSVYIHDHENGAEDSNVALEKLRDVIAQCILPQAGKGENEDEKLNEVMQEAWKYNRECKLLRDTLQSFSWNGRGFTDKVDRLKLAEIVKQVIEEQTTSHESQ

[8] = biological target: Ribosomal protein S6 kinase beta-1 (Homo sapiens) (UniProt P23443); experiment: Inhibition of human S6K1 (1 to 421 residues) assessed as enzyme activity at 1 uM using 33P ATP by radioactive filter binding assay; parameters: scale not given: the % may be the effect or the level left
[9] = biological target: SRSF protein kinase 1 (Homo sapiens) (UniProt Q96SB4); experiment: Inhibition of human SRPK1 (2 to 654 residues) assessed as enzyme activity at 1 uM using 33P ATP by radioactive filter binding assay; parameters: scale not given: the % may be the effect or the level left
[10] = biological target: Tyrosine-protein kinase SYK (Homo sapiens) (UniProt P43405); experiment: Inhibition of human SYK (1 to 635 residues) assessed as enzyme activity at 1 uM using 33P ATP by radioactive filter binding assay; parameters: scale not given: the % may be the effect or the level left
[11] = biological target: Phosphatidylinositol 4,5-bisphosphate 3-kinase catalytic subunit alpha isoform (Homo sapiens, UniProt P42336); experiment: Inhibition of PI3K alpha (unknown origin)
[12] = biological target: Tyrosine-protein kinase BTK (Homo sapiens) (UniProt Q06187); experiment: Inhibition of human BTK (2 to 659 residues) assessed as enzyme activity at 1 uM using 33P ATP by radioactive filter binding assay; parameters: scale not given: the % may be the effect or the level left
Tyrosine-protein kinase BTK (Homo sapiens), sequence (Q06187 whole entry, the tested form may be a part): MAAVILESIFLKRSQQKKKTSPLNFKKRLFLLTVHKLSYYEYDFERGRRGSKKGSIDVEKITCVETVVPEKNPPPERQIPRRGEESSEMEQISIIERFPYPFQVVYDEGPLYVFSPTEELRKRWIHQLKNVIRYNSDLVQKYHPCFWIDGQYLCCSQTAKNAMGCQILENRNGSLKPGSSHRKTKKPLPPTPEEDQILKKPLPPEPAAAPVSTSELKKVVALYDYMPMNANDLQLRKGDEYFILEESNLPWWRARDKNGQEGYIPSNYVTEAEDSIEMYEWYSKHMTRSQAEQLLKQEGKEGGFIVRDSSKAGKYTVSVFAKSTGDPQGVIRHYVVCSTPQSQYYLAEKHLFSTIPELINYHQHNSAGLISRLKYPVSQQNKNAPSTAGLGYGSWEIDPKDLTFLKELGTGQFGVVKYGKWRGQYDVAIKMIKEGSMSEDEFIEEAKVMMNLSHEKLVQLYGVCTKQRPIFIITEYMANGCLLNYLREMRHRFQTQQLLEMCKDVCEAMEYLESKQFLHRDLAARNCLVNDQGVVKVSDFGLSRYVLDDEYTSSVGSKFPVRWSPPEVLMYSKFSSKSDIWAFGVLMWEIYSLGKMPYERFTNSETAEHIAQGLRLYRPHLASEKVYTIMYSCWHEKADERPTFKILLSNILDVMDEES

Serine/threonine-protein kinase pim-2 (Homo sapiens), sequence (Q9P1W9 whole entry, looked up, the tested form may be a part): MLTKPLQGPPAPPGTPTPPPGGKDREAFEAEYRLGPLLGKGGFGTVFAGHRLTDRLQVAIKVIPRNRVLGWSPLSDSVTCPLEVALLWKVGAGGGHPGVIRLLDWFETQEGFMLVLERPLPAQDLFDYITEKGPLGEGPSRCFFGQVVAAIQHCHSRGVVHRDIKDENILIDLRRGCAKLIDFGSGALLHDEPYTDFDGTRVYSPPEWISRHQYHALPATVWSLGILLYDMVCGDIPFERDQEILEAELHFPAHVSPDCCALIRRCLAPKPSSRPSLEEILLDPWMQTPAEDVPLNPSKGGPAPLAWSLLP
Phosphatidylinositol 4,5-bisphosphate 3-kinase catalytic subunit alpha isoform, sequence (P42336 whole entry, the tested form may be a part, canonical isoform): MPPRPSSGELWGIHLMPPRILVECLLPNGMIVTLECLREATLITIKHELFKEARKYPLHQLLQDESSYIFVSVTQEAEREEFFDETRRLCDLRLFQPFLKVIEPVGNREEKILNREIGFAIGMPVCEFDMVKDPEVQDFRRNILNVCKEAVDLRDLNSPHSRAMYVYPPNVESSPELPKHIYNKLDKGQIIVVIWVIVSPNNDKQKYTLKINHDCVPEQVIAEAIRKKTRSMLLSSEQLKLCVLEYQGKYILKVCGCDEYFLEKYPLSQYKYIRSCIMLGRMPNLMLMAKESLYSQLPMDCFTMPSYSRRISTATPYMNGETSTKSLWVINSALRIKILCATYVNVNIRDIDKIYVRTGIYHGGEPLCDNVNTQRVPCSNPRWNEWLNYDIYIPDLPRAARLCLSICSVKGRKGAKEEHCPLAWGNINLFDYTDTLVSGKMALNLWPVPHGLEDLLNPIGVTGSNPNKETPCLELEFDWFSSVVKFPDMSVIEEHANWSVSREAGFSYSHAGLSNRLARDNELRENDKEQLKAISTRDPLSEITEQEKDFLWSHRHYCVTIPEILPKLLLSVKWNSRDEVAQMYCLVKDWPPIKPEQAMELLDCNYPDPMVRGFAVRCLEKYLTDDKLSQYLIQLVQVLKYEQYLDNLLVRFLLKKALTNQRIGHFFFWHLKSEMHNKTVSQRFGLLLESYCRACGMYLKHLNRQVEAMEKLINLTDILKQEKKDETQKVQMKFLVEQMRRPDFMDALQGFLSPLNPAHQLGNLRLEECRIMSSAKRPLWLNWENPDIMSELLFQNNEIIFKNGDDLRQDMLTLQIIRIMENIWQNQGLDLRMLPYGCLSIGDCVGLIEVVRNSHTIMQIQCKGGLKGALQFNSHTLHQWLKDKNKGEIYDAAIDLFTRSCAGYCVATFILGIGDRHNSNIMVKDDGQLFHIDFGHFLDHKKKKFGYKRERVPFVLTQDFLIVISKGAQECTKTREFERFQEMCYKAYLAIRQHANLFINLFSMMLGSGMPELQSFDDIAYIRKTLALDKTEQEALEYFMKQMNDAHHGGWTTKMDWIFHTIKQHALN
MAP kinase-interacting serine/threonine-protein kinase 2 (Homo sapiens), sequence (Q9HBH9 whole entry, looked up, the tested form may be a part): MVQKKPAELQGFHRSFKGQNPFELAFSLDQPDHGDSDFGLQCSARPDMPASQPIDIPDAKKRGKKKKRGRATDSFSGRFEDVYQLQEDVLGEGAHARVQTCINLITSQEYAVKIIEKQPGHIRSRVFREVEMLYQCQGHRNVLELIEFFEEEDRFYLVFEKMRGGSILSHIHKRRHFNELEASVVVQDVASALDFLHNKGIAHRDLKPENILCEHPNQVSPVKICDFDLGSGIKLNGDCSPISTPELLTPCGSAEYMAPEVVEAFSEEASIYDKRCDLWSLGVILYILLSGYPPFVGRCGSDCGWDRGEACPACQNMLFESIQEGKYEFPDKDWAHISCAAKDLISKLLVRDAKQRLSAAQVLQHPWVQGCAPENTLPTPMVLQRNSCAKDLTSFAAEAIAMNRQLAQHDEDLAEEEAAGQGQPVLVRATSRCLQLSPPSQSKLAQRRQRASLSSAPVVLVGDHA
Insulin receptor-related protein (Homo sapiens), sequence (P14616 27-742 limits assumed): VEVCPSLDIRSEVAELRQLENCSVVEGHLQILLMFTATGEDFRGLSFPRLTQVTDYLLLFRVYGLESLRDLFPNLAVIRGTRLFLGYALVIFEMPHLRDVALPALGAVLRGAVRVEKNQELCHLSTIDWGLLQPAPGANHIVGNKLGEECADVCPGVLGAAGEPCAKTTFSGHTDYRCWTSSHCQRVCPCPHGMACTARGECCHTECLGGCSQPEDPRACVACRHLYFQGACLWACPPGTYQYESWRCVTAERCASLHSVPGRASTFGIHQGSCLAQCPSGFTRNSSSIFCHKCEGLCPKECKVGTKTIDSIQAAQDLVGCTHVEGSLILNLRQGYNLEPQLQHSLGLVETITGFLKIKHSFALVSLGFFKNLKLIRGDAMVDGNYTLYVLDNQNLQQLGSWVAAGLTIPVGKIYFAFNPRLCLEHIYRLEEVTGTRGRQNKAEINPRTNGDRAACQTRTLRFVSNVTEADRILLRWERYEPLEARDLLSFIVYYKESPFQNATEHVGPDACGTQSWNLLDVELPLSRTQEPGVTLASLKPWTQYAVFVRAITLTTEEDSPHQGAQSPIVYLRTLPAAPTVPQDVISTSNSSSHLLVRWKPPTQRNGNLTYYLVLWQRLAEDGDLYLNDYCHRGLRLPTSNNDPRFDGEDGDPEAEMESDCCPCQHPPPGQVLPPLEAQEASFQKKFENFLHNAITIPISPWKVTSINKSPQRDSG
Insulin receptor-related protein (Homo sapiens), sequence (P14616 747-1297 limits assumed): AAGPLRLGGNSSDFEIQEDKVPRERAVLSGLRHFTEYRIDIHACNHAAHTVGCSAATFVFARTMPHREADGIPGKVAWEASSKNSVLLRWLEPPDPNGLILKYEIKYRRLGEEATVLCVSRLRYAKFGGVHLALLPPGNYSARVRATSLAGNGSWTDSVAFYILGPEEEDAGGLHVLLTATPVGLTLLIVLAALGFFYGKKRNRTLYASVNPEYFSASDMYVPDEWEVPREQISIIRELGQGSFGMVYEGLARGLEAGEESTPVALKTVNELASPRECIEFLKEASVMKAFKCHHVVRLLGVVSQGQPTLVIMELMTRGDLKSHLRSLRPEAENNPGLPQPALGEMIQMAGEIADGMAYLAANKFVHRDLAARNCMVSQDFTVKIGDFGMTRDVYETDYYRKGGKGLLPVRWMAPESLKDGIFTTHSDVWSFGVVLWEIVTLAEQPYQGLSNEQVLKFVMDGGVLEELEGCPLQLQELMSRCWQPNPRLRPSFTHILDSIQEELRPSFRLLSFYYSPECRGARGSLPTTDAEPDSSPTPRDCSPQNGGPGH
SRSF protein kinase 1 (Homo sapiens), sequence (Q96SB4 whole entry, the tested form may be a part): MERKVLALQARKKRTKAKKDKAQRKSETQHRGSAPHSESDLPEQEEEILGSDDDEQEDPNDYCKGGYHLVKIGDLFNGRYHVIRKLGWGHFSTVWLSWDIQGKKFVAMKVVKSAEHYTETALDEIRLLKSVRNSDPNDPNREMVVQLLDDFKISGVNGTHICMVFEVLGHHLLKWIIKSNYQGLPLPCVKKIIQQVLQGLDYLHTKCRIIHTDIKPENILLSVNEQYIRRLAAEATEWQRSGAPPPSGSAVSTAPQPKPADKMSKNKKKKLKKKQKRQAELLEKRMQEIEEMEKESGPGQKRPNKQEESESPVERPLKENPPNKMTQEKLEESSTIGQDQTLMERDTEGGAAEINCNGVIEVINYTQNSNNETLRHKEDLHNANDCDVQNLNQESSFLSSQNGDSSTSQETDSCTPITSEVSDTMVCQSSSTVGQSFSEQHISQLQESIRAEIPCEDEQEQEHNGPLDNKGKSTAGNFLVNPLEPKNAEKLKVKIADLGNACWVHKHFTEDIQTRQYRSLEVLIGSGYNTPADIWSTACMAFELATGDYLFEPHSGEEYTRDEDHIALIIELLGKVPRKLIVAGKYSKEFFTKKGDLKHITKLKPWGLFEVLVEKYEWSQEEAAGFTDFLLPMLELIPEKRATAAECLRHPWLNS
Mitogen-activated protein kinase 1 (Homo sapiens), sequence (P28482 whole entry, the tested form may be a part): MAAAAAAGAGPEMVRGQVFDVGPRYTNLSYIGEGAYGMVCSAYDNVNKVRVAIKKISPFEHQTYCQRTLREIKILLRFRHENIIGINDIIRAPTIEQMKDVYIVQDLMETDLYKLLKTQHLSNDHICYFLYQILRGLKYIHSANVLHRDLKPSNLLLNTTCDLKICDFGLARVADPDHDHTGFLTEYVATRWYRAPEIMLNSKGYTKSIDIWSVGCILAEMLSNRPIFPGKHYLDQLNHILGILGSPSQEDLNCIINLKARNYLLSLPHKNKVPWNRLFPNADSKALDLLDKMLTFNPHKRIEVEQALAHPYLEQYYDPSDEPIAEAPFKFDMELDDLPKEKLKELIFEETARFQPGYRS

Activity [1] | Activity [2] | Activity [3] | Activity [4] | Activity [5] | Activity [6] | Activity [7] | Activity [8] | Activity [9] | Activity [10] | IC50 [11] | Activity [12] | SMILES
-45% | -9% | -21% | -15% | -35% | -39% | -17% | -71% | -9% | 12% | > 10 µM | -13% | Nc1nccc(-c2c[nH]c3ncccc23)n1 [MERIOLIN 1]
-46% | -42% | -32% | -46% | -49% | -87% | 4% | -66% | 3% |  |  | -31% | CCc1cc(-c2c[nH]c3ncc(-c4cnn(C5CCNCC5)c4)cc23)nc(N)n1
-27% | -82% | -9% | -23% | -15% | -25% | 2% | -77% | -12% | -9% | > 10 µM |  | CCCCc1cc(-c2c[nH]c3ncccc23)nc(N)n1
-63% | -86% | -30% | -59% | -42% | -98% | -10% | -84% | -14% | -69% | 5.5 µM | -28% | CCCCc1cc(-c2c[nH]c3ncc(-c4cnn(C5CCNCC5)c4)cc23)nc(N)n1
